From patent US11654096B2 (L'OREAL, priority 2017, dated 2023)
Values joined by “and” are separate entries in the source; they are usually repeats but may differ in a detail not shown here. Equal values may be shown once.

What was measured:
Format in all cases: cell-based
[1] = tested on: normal human epidermal keratinocytes (NHEKs); assay: Neosynthesis of total GAGs by NHEKs, [3H]-glucosamine incorporation; details: for % Control / Mean (cpm) / [3H]-glucosamine (cpm): total GAGs, NHEKs; for [3H]-glucosamine (cpm): single replicates
Description: (§1) The effects of the compounds on the neosynthesis of total and sulfated glycosaminoglycans (GAGs) were studied on two cell models, normal human epidermal keratinocytes (NHEKs) and normal human dermal fibroblasts (NHDFs). The effects of these compounds were evaluated by measuring: • the incorporation of [3H]-glucosamine into the total GAGs neosynthesized by NHEKs and by NHDFs, • the incorporation of [35S]-sulfate into the sulfated GAGs neosynthesized by NHEKs and by NHDFs.
(§2) The keratinocytes were seeded into wells and cultured in culture medium for 24 hours. The medium was then replaced with culture medium containing or not containing (control) the compounds to be tested or the reference (4-nitrophenyl β-D-xylopyranoside at 300 μM), then the cells were incubated for 72 hours with the addition of the [3H]-glucosamine radioactive label (total GAGs) or of the [35S]-sulfate radioactive label (sulfated GAGs) for the final 24 hours of incubation.
(§3) At the end of the incubation, the glycosaminoglycans were extracted from the cells with a chaotropic buffer. The GAGs were then purified by ion exchange chromatography: adsorption of the anionic molecules on Q-Sepharose beads and desorption of the molecules of low or medium anionic nature, with a suitable solution.
(§4) The radioactivity incorporated into the molecules left on the support (GAGs, predominantly) was measured by liquid scintillation.
(§5) All the experimental conditions were performed in n=3.
(§6) The inter-group comparisons were performed using Student's non-paired two-sided t-test. The statistical analyses can be interpreted if n≥5; however, for n<5, the data calculated are provided only by way of indication.

[2] = tested on: normal human epidermal keratinocytes (NHEKs); assay: Neosynthesis of sulfated GAGs by NHEKs, [35S]-sulfate incorporation; details: for % Control / Mean (cpm) / [35S]-Sulfate (cpm): sulfated GAGs, NHEKs; for [35S]-Sulfate (cpm): single replicates
Description: as §1, §2, §3, §4, §5, §6

[3] = tested on: normal human dermal fibroblasts (NHDFs); assay: Neosynthesis of total GAGs by NHDFs, [3H]-glucosamine incorporation; details: tested at 10 and 100 μM
Description: as §1
(§7) The fibroblasts were seeded into wells and cultured in culture medium for 24 hours. The medium was then replaced with culture medium containing or not containing (controt) the compounds to be tested or the reference (TGF-β at 10 ng/ml), then the cells were incubated for 72 hours with the addition of the [35S]-sulfate radioactive label (sulfated GAGs) or of the [3H]-glucosamine radioactive label (total GAGs) for the final 24 hours of incubation.
as §3, §4, §5, §6

[4] = tested on: normal human dermal fibroblasts (NHDFs); assay: Neosynthesis of sulfated GAGs by NHDFs, [35S]-sulfate incorporation; details: for % Control / Mean (cpm) / [35S]-Sulfate (cpm): sulfated GAGs, NHDFs; for [35S]-Sulfate (cpm): single replicates
Description: as §1, §7, §3, §4, §5, §6

## OC[C@H]1O[C@@H](Oc2cc(O)cc(/C=C/c3ccc(O)cc3)c2)[C@H](O)[C@@H](O)[C@@H]1O [Polydatin]
[1]; tested at 10 and 100 μM
  effect on the neosynthesis of the total GAGs by the NHEKs (in words): did not modulate
[1]; campaign 1, 10 μM
  % Control: 102%
  Mean (cpm): 13202 cpm
  [3H]-glucosamine (cpm): 13405 cpm and 13192 cpm and 13010 cpm
[1]; campaign 1, 100 μM
  % Control: 90%
  Mean (cpm): 11660 cpm
  [3H]-glucosamine (cpm): 12222 cpm and 11510 cpm and 11248 cpm
[2]; campaign 1, 10 μM
  % Control: 100%
  Mean (cpm): 6760 cpm
  [35S]-Sulfate (cpm): 6316 cpm and 6800 cpm and 7164 cpm
[2]; campaign 1, 100 μM
  % Control: 119%
  Mean (cpm): 8043 cpm
  [35S]-Sulfate (cpm): 7007 cpm and 8365 cpm and 8756 cpm
[2]; tested at 10 and 100 μM
  effect on the neosynthesis of the sulfated GAGs by the NHEKs (in words): did not modulate
[3]
  effect on the neosynthesis of the total GAGs by the NHDFs (in words): overall inhibited
[4]; campaign 1, 10 μM
  % Control: 96%
  Mean (cpm): 1573 cpm
  [35S]-Sulfate (cpm): 1523 cpm and 1479 cpm and 1718 cpm
[4]; campaign 1, 100 μM
  % Control: 78%
  Mean (cpm): 1287 cpm
  [35S]-Sulfate (cpm): 1290 cpm and 1317 cpm and 1255 cpm
[4]; tested at 10 and 100 μM
  effect on the neosynthesis of the sulfated GAGs by the NHDFs (in words): overall inhibited
